The values below come from patent US11479551B2, “MTA-cooperative PRMT5 inhibitors” (Mirati Therapeutics, Inc., priority 2019, dated 2022).

The target of assay [1] is T1, PRMT5/MEP50 complex (Homo sapiens (Human), UniProt O14744). Description: PRMT5:MEP50 FlashPlate Assay (histone H4 peptide substrate, plus and minus MTA). The class given is biochemical. Here is the method: (§1) The PRMT5 inhibitory activity of compounds of the present invention was determined using either a PRMT5:MEP50 FlashPlate Assay (Reaction Biology Corporation) or a PRMT5:MEP50 HotSpot Assay (Reaction Biology Corporation).
T1 sequence (O14744 2-637): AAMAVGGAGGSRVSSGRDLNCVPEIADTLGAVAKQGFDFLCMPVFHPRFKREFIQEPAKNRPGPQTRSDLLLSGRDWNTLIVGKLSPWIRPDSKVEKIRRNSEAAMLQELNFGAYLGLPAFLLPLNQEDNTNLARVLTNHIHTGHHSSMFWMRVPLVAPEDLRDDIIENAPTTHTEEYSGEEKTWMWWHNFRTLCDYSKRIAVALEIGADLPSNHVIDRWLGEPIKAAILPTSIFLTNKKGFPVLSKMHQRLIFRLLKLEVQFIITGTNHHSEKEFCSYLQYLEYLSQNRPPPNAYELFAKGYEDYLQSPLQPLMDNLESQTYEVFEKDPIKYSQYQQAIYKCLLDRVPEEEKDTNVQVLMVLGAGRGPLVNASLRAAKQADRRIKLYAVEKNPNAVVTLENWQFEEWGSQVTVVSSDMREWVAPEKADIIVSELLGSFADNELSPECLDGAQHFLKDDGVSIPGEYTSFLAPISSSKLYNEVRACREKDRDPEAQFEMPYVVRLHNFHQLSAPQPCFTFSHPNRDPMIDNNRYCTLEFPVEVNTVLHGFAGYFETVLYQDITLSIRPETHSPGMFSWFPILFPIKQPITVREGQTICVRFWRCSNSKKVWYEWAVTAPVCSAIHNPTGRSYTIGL
T1 sequence (Q9BQA1 2-342 partner): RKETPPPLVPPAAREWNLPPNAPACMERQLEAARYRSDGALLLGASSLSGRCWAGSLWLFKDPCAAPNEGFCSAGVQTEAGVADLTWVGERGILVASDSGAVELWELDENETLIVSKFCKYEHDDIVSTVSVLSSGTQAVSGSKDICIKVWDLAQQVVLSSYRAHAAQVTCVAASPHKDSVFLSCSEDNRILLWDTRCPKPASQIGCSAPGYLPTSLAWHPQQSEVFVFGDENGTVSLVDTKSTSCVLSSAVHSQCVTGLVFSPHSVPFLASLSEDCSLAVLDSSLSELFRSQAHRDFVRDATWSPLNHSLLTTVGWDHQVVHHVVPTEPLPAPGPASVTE
1. PRMT5:MEP50 FlashPlate Assay

Assay [2] concerns the target T1, PRMT5/MEP50 complex. The experiment in a line: PRMT5:MEP50 HotSpot Assay (full-length histone H2A substrate, plus and minus MTA). The class given is biochemical. On the procedure:
as §1
The assay uses recombinant full-length histone H2A as the PRMT5 substrate. […] The reaction was stopped and transferred to filter paper for detection. The amount of tritiated H2A in each sample was determined using a scintillation counter.

Where [3] appears, read: IC50 + 2 μM MTA (nM), in the presence of 2 μM MTA.
Setting [4] is: in the absence of MTA, read-out: IC50.
[5] abbreviates: IC50 + 2 μM MTA, in the presence of 2 μM MTA.

Usually IC50 stands for the concentration needed to halve the response being measured. `Cc1ccc(Oc2cncc(-c3ccc4c(=O)[nH]nc(CN)c4c3)c2)c(C)c1` [Example 4-73, 4-(aminomethyl)-6-(5-(2,4-dimethylphenoxy)pyridin-3-yl)phthalazin-1(2H)-one]: the IC50 is 0.6 nM in assay [1] (setting [3]), 24 nM in assay [1] (setting [4]) and 933 nM in assay [2] (setting [5]).

For the compound `NCc1n[nH]c(=O)c2ccc(-c3cncc(Oc4ccccc4Cl)c3)cc12` [Example 4-71, 4-(aminomethyl)-6-(5-(2-chlorophenoxy)pyridin-3-yl)phthalazin-1(2H)-one], the IC50 in assay [1] (setting [3]) is 4.9 nM; in assay [1] (setting [4]), 116 nM; in assay [2] (setting [5]) it was 1050 nM; in assay [2] (setting [4]), greater than 10000 nM.

Take `COc1ccc2ncc(-c3ccc4c(=O)[nH]nc(CN)c4c3)n2c1` [Example 4-16, 4-(aminomethyl)-6-(6-methoxyimidazo[1,2-a]pyridin-3-yl)phthalazin-1(2H)-one]: the IC50 amounted to 9.4 nM in assay [1] (setting [3]), 602 nM in assay [1] (setting [4]) and 8850 nM in assay [2] (setting [5]).

Regarding `COc1ccc(-c2c(-c3ccc4c(=O)[nH]nc(CN)c4c3)cnn2C)cc1` [Example 4-98, 4-(aminomethyl)-6-(5-(4-methoxyphenyl)-1-methyl-1H-pyrazol-4-yl)phthalazin-1(2H)-one], the IC50 was found to be 2.1 nM in assay [1] (setting [3]), 90 nM in assay [1] (setting [4]) and 635 nM in assay [2] (setting [5]).

For `NCc1n[nH]c(=O)c2ccc(-c3cncc(Oc4ccccc4)c3)cc12` [Example 3-50, 4-(aminomethyl)-6-(5-phenoxypyridin-3-yl)phthalazin-1(2H)-one], the IC50 in assay [1] (setting [3]) is 10 nM; in assay [1] (setting [4]) it was 277 nM; in assay [2] (setting [5]), 3780 nM; in assay [2] (setting [4]) it was greater than 10000 nM.

With `Cn1ncc(-c2ccc3c(=O)[nH]nc(CN)c3c2)c1-c1ccccc1` [Example 4-32, 4-(aminomethyl)-6-(1-methyl-5-phenyl-1H-pyrazol-4-yl)phthalazin-1(2H)-one], the IC50 in assay [1] (setting [3]) was 1.6 nM; in assay [1] (setting [4]), 45 nM; in assay [2] (setting [5]), 2040 nM; in assay [2] (setting [4]), greater than 10000 nM.

In the case of `CCOc1ccc2ncc(-c3ccc4c(=O)[nH]nc(CN)c4c3)n2c1` [Example 4-36, 4-(aminomethyl)-6-(6-ethoxyimidazo[1,2-a]pyridin-3-yl)phthalazin-1(2H)-one], the IC50 in assay [1] (setting [3]) was 13 nM; in assay [1] (setting [4]), 541 nM; in assay [2] (setting [5]), 2800 nM.

Consider `NCc1n[nH]c(=O)c2ccc(-c3cnc4[nH]cc(Cl)c4c3)cc12` [Example 4-44, 4-(aminomethyl)-6-(3-chloro-1H-pyrrolo[2,3-b]pyridin-5-yl)phthalazin-1(2H)-one], for which the IC50 in assay [1] (setting [3]) was 5.4 nM; in assay [1] (setting [4]), 691 nM; in assay [2] (setting [5]), 6830 nM; in assay [2] (setting [4]) it was greater than 10000 nM.

With `N#Cc1ccccc1-c1cncc(-c2ccc3c(=O)[nH]nc(CN)c3c2)c1` [Example 3-40, 2-(5-(4-(aminomethyl)-1-oxo-1,2-dihydrophthalazin-6-yl)pyridin-3-yl)benzonitrile], the IC50 stood at 6 nM in assay [1] (setting [3]), 193 nM in assay [1] (setting [4]) and 9690 nM in assay [2] (setting [5]).

On to `Cn1ncc(-c2ccc3c(=O)[nH]nc(CN)c3c2)c1-c1ccc(Cl)cc1` [Example 4-96, 4-(aminomethyl)-6-(5-(4-chlorophenyl)-1-methyl-1H-pyrazol-4-yl)phthalazin-1(2H)-one], for which the IC50 in assay [1] (setting [3]) is 3.9 nM; in assay [1] (setting [4]) it was 116 nM; in assay [2] (setting [5]), 868 nM; in assay [2] (setting [4]), greater than 10000 nM.

Regarding `COc1cccc(-c2c(-c3ccc4c(=O)[nH]nc(CN)c4c3)cnn2C)c1` [Example 4-93, 4-(aminomethyl)-6-(5-(3-methoxyphenyl)-1-methyl-1H-pyrazol-4-yl)phthalazin-1(2H)-one], the IC50 was 3.3 nM in assay [1] (setting [3]), 85 nM in assay [1] (setting [4]) and 845 nM in assay [2] (setting [5]).

With `CCc1c[nH]c2ncc(-c3ccc4c(=O)[nH]nc(CN)c4c3)cc12` [Example 4-45, 4-(aminomethyl)-6-(3-ethyl-1H-pyrrolo[2,3-b]pyridin-5-yl)phthalazin-1(2H)-one], the IC50 in assay [1] (setting [3]) came out at 16 nM; in assay [1] (setting [4]) it was 291 nM; in assay [2] (setting [5]) it was 2790 nM.

Take `Cn1ncc(-c2ccc3c(=O)[nH]nc(CN)c3c2)c1OCc1ccccc1Cl` [Example 4-154, 4-(aminomethyl)-6-(5-((2-chlorobenzyl)oxy)-1-methyl-1H-pyrazol-4-yl)phthalazin-1(2H)-one]: the IC50 in assay [2] (setting [5]) worked out at 3280 nM.

Consider `NCc1n[nH]c(=O)c2ccc(-c3cncc(C4CCCCC4)c3)cc12` [Example 14-1, 4-(aminomethyl)-6-(5-cyclohexyl-3-pyridyl)-2H-phthalazin-1-one], for which the IC50 in assay [2] (setting [5]) is greater than 10000 nM.

Take `NCc1n[nH]c(=O)c2ccc(-c3cncc(C(O)c4ccccc4)c3)cc12` (centres unmarked) [Example 4-51, 4-(aminomethyl)-6-(5-(hydroxy(phenyl)methyl)pyridin-3-yl)phthalazin-1(2H)-one]: the IC50 is 5.8 nM in assay [1] (setting [3]), 530 nM in assay [1] (setting [4]), 1510 nM in assay [2] (setting [5]) and greater than 10000 nM in assay [2] (setting [4]).

Turning to `COc1ccc(-c2c(-c3ccc4c(=O)[nH]nc(CN)c4c3)cnn2C)c(C#N)c1C` [Example 4-179, 6-(4-(4-(aminomethyl)-1-oxo-1,2-dihydrophthalazin-6-yl)-1-methyl-1H-pyrazol-5-yl)-3-methoxy-2-methylbenzonitrile], the IC50 in assay [2] (setting [5]) is 1240 nM.

On to `NCc1n[nH]c(=O)c2ccc(-c3cnn4c3CN(c3ccccc3)CC4)cc12` [Example 4-83, 4-(aminomethyl)-6-(5-phenyl-4,5,6,7-tetrahydropyrazolo[1,5-a]pyrazin-3-yl)phthalazin-1(2H)-one], for which the IC50 is 14 nM in assay [1] (setting [3]), 344 nM in assay [1] (setting [4]) and 2710 nM in assay [2] (setting [5]).

As for `Cn1ncc(-c2ccc3c(=O)[nH]nc(CN)c3c2)c1-c1cc2ncccc2cc1C#N` [Example 4-167, 7-(4-(4-(aminomethyl)-1-oxo-1,2-dihydrophthalazin-6-yl)-1-methyl-1H-pyrazol-5-yl)quinoline-6-carbonitrile], the IC50 in assay [2] (setting [5]) was 6620 nM.

In the case of `Cn1ncc(-c2ccc3c(=O)[nH]nc(CN)c3c2)c1-c1ccc(OC2CCC2)cc1` [Example 4-138, 4-(aminomethyl)-6-(5-(4-cyclobutoxyphenyl)-1-methyl-1H-pyrazol-4-yl)phthalazin-1(2H)-one], the IC50 in assay [2] (setting [5]) stood at 354 nM.

As for `COc1ccc(Oc2cncc(-c3ccc4c(=O)[nH]nc(CN)c4c3)c2)c(OC)c1` [Example 4-162, 4-(aminomethyl)-6-(5-(2,4-dimethoxyphenoxy)pyridin-3-yl)phthalazin-1(2H)-one], the IC50 in assay [2] (setting [5]) was determined as 842 nM.

On to `CCOc1ccn2ncc(-c3ccc4c(=O)[nH]nc(CN)c4c3)c2c1` [Example 4-112, 4-(aminomethyl)-6-(5-ethoxypyrazolo[1,5-a]pyridin-3-yl)phthalazin-1(2H)-one], for which the IC50 in assay [2] (setting [5]) amounted to 1020 nM.

As to `CCc1ccc(-c2c(-c3ccc4c(=O)[nH]nc(CN)c4c3)cnn2C)cc1` [Example 4-134, 4-(aminomethyl)-6-(5-(4-ethylphenyl)-1-methyl-1H-pyrazol-4-yl)phthalazin-1(2H)-one], the IC50 in assay [2] (setting [5]) amounted to 2730 nM.

Regarding `CCCOc1cccc(-c2c(-c3ccc4c(=O)[nH]nc(CN)c4c3)cnn2C)c1C#N` [Example 4-178, 2-(4-(4-(aminomethyl)-1-oxo-1,2-dihydrophthalazin-6-yl)-1-methyl-1H-pyrazol-5-yl)-6-propoxybenzonitrile], in assay [2] (setting [5]), the IC50 came out at 4880 nM.

`Cn1ncc(-c2ccc3c(=O)[nH]nc(CN)c3c2)c1OCC1CC1` [Example 4-116, 4-(aminomethyl)-6-(5-(cyclopropylmethoxy)-1-methyl-1H-pyrazol-4-yl)phthalazin-1(2H)-one]: the 50% inhibitory concentration (IC50) in assay [2] (setting [5]) turned out to be 1080 nM.

Turning to `Cn1ncc(-c2ccc3c(=O)[nH]nc(CN)c3c2)c1-c1ccc(C2CC2)cc1C#N` [Example 4-126, 2-(4-(4-(aminomethyl)-1-oxo-1,2-dihydrophthalazin-6-yl)-1-methyl-1H-pyrazol-5-yl)-5-cyclopropylbenzonitrile], in assay [2] (setting [5]), the IC50 stood at 361 nM.

Consider `CCc1ccc(-c2c(-c3ccc4c(=O)[nH]nc(CN)c4c3)cnn2C)c(C#N)c1` [Example 4-124, 2-(4-(4-(aminomethyl)-1-oxo-1,2-dihydrophthalazin-6-yl)-1-methyl-1H-pyrazol-5-yl)-5-ethylbenzonitrile], for which, in assay [2] (setting [5]), the half-inhibitory concentration (IC50) is 826 nM.

Regarding `COc1cc(C#N)c(-c2c(-c3ccc4c(=O)[nH]nc(CN)c4c3)cnn2C)cc1Cl` [Example 4-133, 2-(4-(4-(aminomethyl)-1-oxo-1,2-dihydrophthalazin-6-yl)-1-methyl-1H-pyrazol-5-yl)-4-chloro-5-methoxybenzonitrile], in assay [2] (setting [5]), the IC50 worked out at 1570 nM.

For `Cn1ncc(-c2ccc3c(=O)[nH]nc(CN)c3c2)c1CCc1ccccc1` [Example 4-117, 4-(aminomethyl)-6-(1-methyl-5-phenethyl-1H-pyrazol-4-yl)phthalazin-1(2H)-one], the IC50 in assay [2] (setting [5]) is 536 nM.

Turning to `Cn1ncc(-c2ccc3c(=O)[nH]nc(CN)c3c2)c1OCc1ccccc1` [Example 4-115, 4-(aminomethyl)-6-(5-(benzyloxy)-1-methyl-1H-pyrazol-4-yl)phthalazin-1(2H)-one], the IC50 in assay [2] (setting [5]) is 377 nM.

Regarding `Cn1ncc(-c2ccc3c(=O)[nH]nc(CN)c3c2)c1-c1cc(Cl)cc(Cl)c1C#N` [Example 4-165, 2-(4-(4-(aminomethyl)-1-oxo-1,2-dihydrophthalazin-6-yl)-1-methyl-1H-pyrazol-5-yl)-4,6-dichlorobenzonitrile], the IC50 in assay [2] (setting [5]) came out at 2410 nM.

For `COc1cc(Cl)cc(-c2c(-c3ccc4c(=O)[nH]nc(CN)c4c3)cnn2C)c1C#N` [Example 4-168, 2-(4-(4-(aminomethyl)-1-oxo-1,2-dihydrophthalazin-6-yl)-1-methyl-1H-pyrazol-5-yl)-4-chloro-6-methoxybenzonitrile], the IC50 in assay [2] (setting [5]) came to 1370 nM.
